Results taken from the supplement of paper PMC7394473.

Legend:
Conditions in all cases: 72 h
U2OS [1] = test: GR50 (concentration giving GR = 0.5)
Procedure: (§1)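 U2OS cells treated with full dose titrations of drug; live and dead cells counted by STACK microscopy (mKate2 nuclei, SYTOX Green) at 72 h, biological triplicates. GR and FV dose responses were fitted with 4-parameter logistic models (GR lower bound -1). GRADE (0-100) is the rescaled angle of a linear fit of FV versus GR at doses with GR >= 0, giving the percentage of the response due to cell death.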

U2OS [2] = test: fractional viability (live cells / total cells); higher = less cell death
Procedure: (§2)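 U2OS::Nuc-mKate2 cells seeded in 96-well plates and treated with eight- to ten-point half-log or log dilutions of drug in the presence of 50 nM SYTOX Green. Live (mKate2+) and dead (SYTOX+) cells were counted by IncuCyte STACK live-cell microscopy at 72 h; biological triplicates. GR is the normalised growth-rate inhibition value (Hafner 2016; 1 = untreated growth, <0 = population shrinking). FV is live/(live+dead) cells, not normalised.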

U2OS [3] = test: normalized growth rate inhibition value (GR) relative to untreated cells (GR value (dimensionless, 1 = untreated growth)); higher = less growth inhibition
Procedure: as §2

U2OS [4] = test: drug GRADE (percent of response due to cell death) (% (0-100)); higher = more death-driven response
Procedure: as §1

U2OS [5] = test: GRmin (fitted minimal GR value at highest effect) (GR value (dimensionless)); higher = less efficacious
Procedure: as §1

Structure (SMILES) | GR50 (U2OS [1]) | fractional viability (U2OS [2]; 0.00100578 µM) | fractional viability (U2OS [2]; 0.00317827 µM) | fractional viability (U2OS [2]; 0.0100433 µM) | fractional viability (U2OS [2]; 0.0317369 µM) | fractional viability (U2OS [2]; 0.100289 µM) | fractional viability (U2OS [2]; 0.316912 µM) | fractional viability (U2OS [2]; 1.00144 µM) | fractional viability (U2OS [2]; 3.16456 µM) | fractional viability (U2OS [2]; 10 µM) | normalized growth rate inhibition value (U2OS [3]; 0.00100578 µM) | normalized growth rate inhibition value (U2OS [3]; 0.00317827 µM) | normalized growth rate inhibition value (U2OS [3]; 0.0100433 µM) | normalized growth rate inhibition value (U2OS [3]; 0.0317369 µM) | normalized growth rate inhibition value (U2OS [3]; 0.100289 µM) | normalized growth rate inhibition value (U2OS [3]; 0.316912 µM) | normalized growth rate inhibition value (U2OS [3]; 1.00144 µM) | normalized growth rate inhibition value (U2OS [3]; 3.16456 µM) | normalized growth rate inhibition value (U2OS [3]; 10 µM) | drug GRADE (U2OS [4]) | fractional viability (U2OS [2]; 0.01 µM) | fractional viability (U2OS [2]; 0.0316 µM) | fractional viability (U2OS [2]; 0.1 µM) | fractional viability (U2OS [2]; 0.316 µM) | fractional viability (U2OS [2]; 1 µM) | fractional viability (U2OS [2]; 3.16 µM) | fractional viability (U2OS [2]; 31.6 µM) | normalized growth rate inhibition value (U2OS [3]; 0.01 µM) | normalized growth rate inhibition value (U2OS [3]; 0.0316 µM) | normalized growth rate inhibition value (U2OS [3]; 0.1 µM) | normalized growth rate inhibition value (U2OS [3]; 0.316 µM) | normalized growth rate inhibition value (U2OS [3]; 1 µM) | normalized growth rate inhibition value (U2OS [3]; 3.16 µM) | normalized growth rate inhibition value (U2OS [3]; 31.6 µM) | GRmin (U2OS [5])
COc1cc2nccc(Oc3ccc(NC(=O)C4(C(=O)Nc5ccc(F)cc5)CC4)cc3)c2cc1OC [Cabozantinib] | 2.79 µM | 0.984 | 0.986 | 0.985 | 0.981 | 0.979 | 0.977 | 0.968 | 0.917 | 0.647 | 1.02 | 0.963 | 1.03 | 1.07 | 0.938 | 0.954 | 0.843 | 0.443 | -0.338 | 9.76 | – | – | – | – | – | – | – | – | – | – | – | – | – | – | –
COc1cc2c(Oc3ccc4[nH]c(C)cc4c3F)ncnc2cc1OCCCN1CCCC1 [Cediranib] | 7.19 µM | 0.987 | 0.986 | 0.986 | 0.988 | 0.986 | 0.987 | 0.974 | 0.966 | 0.686 | 0.951 | 1.04 | 1.11 | 1.04 | 0.987 | 1.07 | 0.861 | 0.837 | 0.308 | 55.1 | – | – | – | – | – | – | – | – | – | – | – | – | – | – | –
O=C(O)CCCc1ccc(N(CCCl)CCCl)cc1 [Chlorambucil] | – | – | – | – | – | – | – | – | – | 0.976 | – | – | – | – | – | – | – | – | 0.925 | – | 0.983 | 0.974 | 0.978 | 0.978 | 0.979 | 0.976 | 0.967 | 1.08 | 0.879 | 1.13 | 0.991 | 0.93 | 0.936 | 0.838 | 0.695
N.N.[Cl][Pt][Cl] [Cisplatin] | 1.8 µM | 0.99 | 0.989 | 0.988 | 0.99 | 0.988 | 0.986 | 0.984 | 0.957 | 0.884 | 0.959 | 0.955 | 1.02 | 0.95 | 0.901 | 0.972 | 0.755 | 0.248 | 0.0495 | 11.1 | – | – | – | – | – | – | – | – | – | – | – | – | – | – | 0.0264
CN(C)/N=N/c1[nH]cnc1C(N)=O [Dacarbazine] | – | – | – | – | – | – | – | – | – | 0.942 | – | – | – | – | – | – | – | – | 0.837 | – | 0.975 | 0.984 | 0.974 | 0.978 | 0.975 | 0.964 | 0.926 | 1.08 | 1.01 | 0.899 | 0.939 | 0.934 | 0.821 | 0.769 | 0.749
Cc1nc(Nc2ncc(C(=O)Nc3c(C)cccc3Cl)s2)cc(N2CCN(CCO)CC2)n1 [Dasatinib] | 1.68 µM | 0.99 | 0.988 | 0.979 | 0.974 | 0.976 | 0.97 | 0.963 | 0.913 | 0.635 | 0.806 | 0.867 | 0.998 | 0.833 | 0.762 | 0.799 | 0.605 | 0.35 | -0.105 | 26.7 | – | – | – | – | – | – | – | – | – | – | – | – | – | – | –
CCOc1ccccc1-n1c(C(C)N2CCN(C(=O)COc3ccc(Cl)cc3)CC2)nc2ccccc2c1=O (configuration not stated) [Erastin] | 4.14 µM | – | – | – | – | – | – | – | – | 0.647 | – | – | – | – | – | – | – | – | 0.22 | 44.7 | 0.977 | 0.982 | 0.983 | 0.976 | 0.961 | 0.945 | 0.531 | 0.987 | 1 | 0.973 | 0.878 | 0.826 | 0.586 | -0.0643 | -0.351
C#Cc1cccc(Nc2ncnc3cc(OCCOC)c(OCCOC)cc23)c1 [Erlotinib] | – | – | – | – | – | – | – | – | – | 0.913 | – | – | – | – | – | – | – | – | 0.636 | 62.1 | 0.973 | 0.976 | 0.977 | 0.967 | 0.96 | 0.96 | 0.697 | 0.935 | 0.993 | 1.03 | 0.986 | 1.06 | 0.928 | 0.545 | 0.542
